Data published in publication PMC3946636 (Cancer chemotherapy and pharmacology, 2013).

Legend:
[1] = in vivo
[2] = in human serum; cited from earlier work
[3] = tested on: relapsed myeloma; experiment: Clinical response by International Myeloma Working Group criteria; assay type: in vivo, human; conditions: 15 patients, all dose levels
[4] = Plasma pharmacokinetics, LC-MS/MS, non-compartmental analysis; assay type: in vivo, human; conditions: for AUC(0-inf) / clearance / Cmax / half-life / Tmax / Vd: human, plasma, intravenous; for AUC(0-inf): Mean AUC0-∞ ± SD; for clearance: Mean CL ± SD; for Cmax: Mean Cmax ± SD; for half-life: Mean T1/2 ± SD; for Vd: Mean Vz ± SD
[5] = dose level 30 + 30 mg/m^2, cycle 1 days 1 and 22 combined
[6] = dose level 30+50 mg/m^2, cycle 1 days 1 and 22 combined
[7] = dose level 50+50 mg/m^2, cycle 1 days 1 and 22 combined

AUC(0-inf) [4, 5]: 7.78 ± 2.75 µM·h
AUC(0-inf) [4, 6]: 4.75 ± 1.06 µM·h
AUC(0-inf) [4, 7]: 14.2 ± 5.34 µM·h
clearance [4, 5]: 666 mL/min
clearance [4, 6]: 1280 mL/min
clearance [4, 7]: 643 mL/min
Cmax [4, 5]: 1850 ± 800 nM
Cmax [4, 6]: 1090 ± 430 nM
Cmax [4, 7]: 2410 ± 740 nM
half-life [4, 5]: 6.87 ± 3.24 h
half-life [4, 6]: 3.65 ± 1.75 h
half-life [4, 7]: 5.35 ± 2.83 h
Tmax ([4]; Mean Tmax ± SD, dose level 30 + 30 mg/m^2, cycle 1 days 1 and 22 combined): 0.52 ± 0.03 h
Tmax ([4]; Mean Tmax ± SD, dose level 30+50 mg/m^2, cycle 1 days 1 and 22 combined): 1.18 ± 1.22 h
Tmax ([4]; Mean Tmax ± SD, dose level 50+50 mg/m^2, cycle 1 days 1 and 22 combined): 1.4 ± 1.67 h
Vd [4, 5]: 368 ± 210 L
Vd [4, 6]: 417 ± 242 L
Vd [4, 7]: 317 ± 255 L
Tmax ([4]; Tmax, outlier, 30/50 mg/m^2 dose level group, single profile): 3 h
Average difference in AUC(0-∞), day 22 versus day 1 ([4]; patients with PK data on both days (n=6), 95% CI −2.78 to 4.78, P=0.53): 1.00 µM·h
Structure (SMILES): CN1CC[C@H](c2c(O)cc(O)c3c(=O)cc(-c4ccccc4Cl)oc23)[C@H](O)C1 [Flavopiridol]
Dehydration, patients with toxicity ([1]; human): 2 n
Diaphoresis, patients with toxicity ([1]; human): 1 n
Dizziness, patients with toxicity ([1]; human): 1 n
Hyperglycemia, patients with toxicity ([1]; human): 4 n
Hyperkalemia, patients with toxicity ([1]; human): 2 n
Hypocalcemia, patients with toxicity ([1]; human): 3 n
Lymphopenia, patients with toxicity ([1]; human): 5 n
Nausea, patients with toxicity ([1]; human): 3 n
Vomiting, patients with toxicity ([1]; human): 1 n
Serious adverse events, number [1]: eight
Protein binding [2]: highly protein bound
Confirmed partial responses [3]: no confirmed partial responses
Patients with progressive disease after the first cycle [3]: 4 patients
